{"source": "patent US20140051729A1", "about": "“COMPOSITIONS AND METHODS FOR TREATING DEGENERATIVE MUSCLE CONDITIONS” (University of Washington, priority 2011, published 2014)", "key": {"[1]": {"test_system": "Dystrophic mutant flies (TubGal4:UAS-Dys^C-RNAi/+)", "assay": "Myofibril Projectin immunohistochemistry in dystrophic flies after oral THI", "format": "in vivo, Drosophila melanogaster", "settings": "3 days once-daily oral THI, myofibrils from 10 day old flies", "protocol": "In mice, the genetic reduction of S1P lyase activity can be phenocopied pharmacologically by the delivery of the small molecule 1-[5-[(1R,2S,3R)-1,2,3,4-tetrahydroxybutyl]-1H-imidazol-2-yl]-ethanone (THI), which inhibits the activity of S1P lyase. Dystrophic mutant flies were administered THI to investigate possible THI suppression of the muscle degeneration phenotype.\nFlies were dipped in 95% EtOH and then dissected in 1×PBS (pH 7.4). Heads and abdomens were removed, and the thoraxes opened. Samples were stained using a modified ovary staining protocol 3. Samples were then fixed in 5% paraformaldehyde (Electron Microscopy Sciences) for 1 hour, rinsed in PBT (PBS/0.2% Triton X-100 v/v) 4 times, and then blocked for 1 hour in PBTB (PBT, 0.4% BSA w/v, 5% Normal Goat Serum v/v) at room temperature. Samples were stained in primary antibody pre-diluted in PBTB (Phalloidin-Alexa-Fluor 568, Invitrogen [mouse, 1:200]; Projectin (Mac150), Babraham Institute [rat, 1:50]) overnight at 4° C., rinsed in PBT 4 times at room temperature (RT), and then stained with secondary antibody pre-diluted in PBTB (Alexa Fluor 488 [mouse, 1:500]) overnight at 4° C. […] For each genotype, 4-5 flies were analyzed, and 6-7 muscles per fly were analyzed. […]"}, "[2]": {"test_system": "plasma creatine kinase (CK) activity", "assay": "Plasma creatine kinase assay in mdx mice", "format": "in vivo, mouse", "settings": "5-month-old mdx males, day 4 post CTX, vs vehicle", "protocol": "The effects of THI in the dystrophic mdx mouse model were studied. […] THI was administered intraperitoneally (IP) to three groups of mdx mice. Right tibialis anterior (TA) and quadriceps muscles were uninjured, while left counterparts were injured using CTX, a well characterized model of acute injury where initial muscle destruction is followed by a rapid myogenic response. The mdx mice were injected with THI, or PBS as a vehicle control, immediately following injury with CTX 5 times during a 3-day period (FIG. 3a). In the first group (N=6, 5-month-old males) the mdx mice were sacrificed at day 4 to analyze the efficacy of the administration of THI for increasing S1P levels in spleen, CTX injured quadriceps, and uninjured quadriceps. The effects of THI administration on the plasma creatine kinase (CK) activity level was also measured.\nMdx mouse plasma samples were diluted 1:50 and total creatine kinsase activity was measured by an enzymatic rate method using a Beckman Coulter instrument. Relative levels were then normalized to body weight."}, "mdx mice": {"test_system": "mdx mice", "assay": "EDL muscle myography in mdx mice", "format": "in vivo, mouse", "settings": "THI IP twice-daily two weeks", "protocol": "The effect of THI administration on muscle function and recovery in mdx mice was analyzed. The mice were injected intraperitoneally with THI in PBS or vehicle alone (PBS) twice-daily for two weeks. Total amount of THI delivered per day was 75 ug. Extensor digitorum longus (EDL) muscles were excised from the mice and equilibrated in ringer's solution with 95% O2/5% CO2 for a minimum of 15 minutes prior to stimulation. Myography was conducted using a DMT 820S myograph and data was recorded using PowerLab 4/30 acquisition system with LabChart Pro software v7.3.1 (both from ADI instruments, Colorado Springs, Colo.). Stimulations were conducted with a Grass Instrument S88X system (Grass Technologies, West Warwick, R.I.). Muscles were stimulated to establish optimal fiber length (Lf) and voltage at which maximum tetanic force was measured at 120 Hz within a 450 ms duration.\nSpecific force was calculated as previously described in Gregorevic P. et al. (Gregorevic P. et al., Muscle Nerve. 2004 September; 30(3):295-304, PMID#15318340) by normalizing to whole muscle cross-sectional area (CSA). CSA is the quotient of […] muscle mass over the optimal muscle length (Lo) which is defined as the product of muscle fiber length (Lf) with the fiber length ratio (0.44 for EDL) and mammalian muscle density (1.06).\nMuscle recovery was measured after muscle was fatigued with stimulation over 6 minutes. […] Recovery was determined by examining muscle force at 5, 10, and 15 minutes after stimulation. […] Therefore, the administration of THI improved muscle recovery and function in dystrophic mice.\nThe effect of THI-oxime administration on muscle function and recovery in mdx mice was analyzed. The mice were injected intraperitoneally with THI-oxime (n=3) or PBS vehicle alone (n=4) twice-daily for two weeks and then analyzed between 1-4 days following the final day of injection. Total amount of THI-oxime delivered per day was 75 ug. Prior to euthanasia, the animals were anesthetized with 0.5 mg/g weight avertin diluted in PBS. EDL muscles were excised from the mice and equilibrated in ringer's solution (120 mM NaCl, 4.7 mM KCl, 3.15 mM MgCl2, 1.3 mM NaH2PO4, 25 mM NaHCO3, 11 mM Glucose, 1.25 mM CaCl2, pH 7.2) with 95% O2/5% CO2 for a minimum of 15 minutes prior to stimulation. All functional experiments were carried out with buffer solutions at 25° C. under constant oxygenation. Myography was conducted using a DMT 820S myograph and data was recorded using PowerLab 4/30 acquisition system with LabChart Pro software v7.3.1 (both from ADI instruments, Colorado Springs, Colo.). […] Muscles were stimulated to establish optimal fiber length (Lf) and voltage at which maximum tetanic force was measured at 120 Hz within a 450 ms duration. […]"}}}
{"smiles": "CC(=O)c1ncc([C@@H](O)[C@H](O)[C@H](O)CO)[nH]1", "note": "[THI, 1-[5-[(1R,2S,3R)-1,2,3,4-tetrahydroxybutyl]-1H-imidazol-2-yl]-ethanone]", "values": [{"measurement": "suppression of muscle wasting (myofibrils)", "setting": "[1]", "result": "significant suppression of muscle wasting"}, {"measurement": "plasma CK levels", "setting": "[2]", "result": "reduced"}, {"measurement": "maximum specific force of EDL muscle", "setting": "mdx mice; 75 ug per day, vehicle 95.45", "result": 134.29, "unit": "KN/m^2"}, {"measurement": "muscle fatigue with stimulation over 6 minutes", "setting": "mdx mice; vs vehicle", "result": "fatigued at similar rates"}, {"measurement": "muscle recovery (force at 5, 10 and 15 minutes after stimulation)", "setting": "mdx mice; vs vehicle", "result": "improved recovery"}]}
